The source of these data is patent US4855430A, “Polycyclicamine with psychotropic activity” (American Home Products Corporation, priority 1987, dated 1989).

Where a name gives a salt, the structure may show the parent alone. Read-outs that look alike come from different tables or passages of the source.

Assay [1] deals with limbic D-2 dopamine receptor (Rattus norvegicus, UniProt P61169). Briefly: inhibition of limbic D-2 dopamine receptor binding (3H-spiroperidol), in vitro. The note with it: read-out: % Inhibition of H3-Spiroperidol Binding at 1 μM.
Assay [2] concerns the target T1, 5-HT1A serotonin receptor (Rattus norvegicus, UniProt P19327).
T1 construct: Hippocampal tissue is dissected and homogenized on ice; from tissue; host or cells: rat hippocampus (membrane homogenate)
T1 sequence (P19327 1-422): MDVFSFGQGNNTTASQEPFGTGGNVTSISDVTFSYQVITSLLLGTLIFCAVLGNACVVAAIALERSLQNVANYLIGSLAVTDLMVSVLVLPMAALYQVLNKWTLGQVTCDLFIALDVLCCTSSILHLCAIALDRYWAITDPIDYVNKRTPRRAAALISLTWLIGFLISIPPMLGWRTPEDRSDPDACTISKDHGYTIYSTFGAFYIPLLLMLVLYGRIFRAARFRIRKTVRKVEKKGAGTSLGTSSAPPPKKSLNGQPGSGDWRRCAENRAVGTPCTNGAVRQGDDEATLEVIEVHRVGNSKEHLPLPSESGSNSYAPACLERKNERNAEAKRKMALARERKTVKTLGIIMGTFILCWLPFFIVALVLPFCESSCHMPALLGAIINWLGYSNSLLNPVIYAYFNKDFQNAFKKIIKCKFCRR
Briefly: ex vivo inhibition of 5-HT1A serotonin receptor binding assay (3H-8-OH-DPAT, hippocampal tissue). The settings on record: read-out: % Inhibition of 8-OH DPAT Binding at 1 μM. The method, then:
The assay is carried out as follows:
Several groups of rats (4-6 rats/group) are injected with test compound or the appropriate vehicle. Thirty minutes later, unless otherwise noted, rats are decapitated and their brains removed. Various brain regions are dissected and rapidly frozen and maintained at -70° C. until used.
The homogenate is then centrifuged at 20,000 rpm (RC5-B; 40,000 g) and the supernatant discarded. The pellet is resuspended in 40 vols of the same buffer and incubated at 37° C. for 10 minutes to aid in the removal of endogenous serotonin. The homogenate is then centrifuged (as above) and the supernatant discarded. The pellet is then resuspended in 100 vols of buffer B (50 mM Tris HCl, pH=7.7 containing 0.1% ascorbate, 10 μM pargyline and 4 mM CaCl2) and sonicated. An aliquot is taken for protein determination by the Lowry method and the remainder stored frozen at -70° C. until used.
The homogenate (50 μl; 0.4-0.6 mg protein/sample) is incubated with 100 μl (1.5-1.8 nM) ^3 H-8-hydroxy-2-(di-n-propylamino)tetraline in a final volume of 2 ml of buffer for 10 minutes at 37° C.
Specific binding obtained in vehicle-treated rats is compared to that obtained in animals receiving a single or various doses of test compound and expressed as percent of control.

For assay [3] the following is noted: West German Patent Application No. 3,321,969A; cited from earlier work.
Another assay relates to 5-HT1A receptor. The note with it: literature, in words; cited from earlier work.
Setting [4] is: 1 μM, 3H-8-OH-DPAT, rat hippocampal tissue.

Chain of limbic D-2 dopamine receptor (P61169 whole entry): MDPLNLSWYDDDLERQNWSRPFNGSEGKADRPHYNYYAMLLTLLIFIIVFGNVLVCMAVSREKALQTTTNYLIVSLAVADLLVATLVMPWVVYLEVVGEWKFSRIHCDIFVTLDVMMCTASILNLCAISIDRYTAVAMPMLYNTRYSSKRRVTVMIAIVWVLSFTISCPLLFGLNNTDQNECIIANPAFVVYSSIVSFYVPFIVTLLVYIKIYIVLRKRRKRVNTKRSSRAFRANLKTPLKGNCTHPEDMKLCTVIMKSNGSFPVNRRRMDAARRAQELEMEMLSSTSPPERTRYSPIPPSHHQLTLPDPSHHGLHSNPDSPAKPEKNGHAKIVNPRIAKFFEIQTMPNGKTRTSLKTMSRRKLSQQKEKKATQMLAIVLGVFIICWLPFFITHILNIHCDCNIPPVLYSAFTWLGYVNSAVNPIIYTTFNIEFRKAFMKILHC

Consider `O=C(CCCN1CC2C3C=CC(CCC3)C2C1)c1ccc(F)cc1` (centres unmarked) [Example 3, 1-(4-Fluorophenyl)-4-(3,3a,4,5,6,7,8,8a-octahydro-4,8-ethenocyclohepta[c]pyrrol-2(1H)-yl)-1-butanone, hydrochloride, hydrate], for which the values for the inhibition at 1 µM in assay [1] and in assay [2] were 100% and 61%, respectively.

On to `C1=CC2C3CCC3C1C1CN(CCc3ccc4ccccc4n3)CC21` (centres unmarked) [Example 4, 2,3,3a,4,4a,5,6,6a,7,7a-Decahydro-2-[2-(2-quinolinyl)ethyl]-4,7-etheno-2H-cyclobut[f]isoindole, dihydrochloride, hydrate], for which the figures for the inhibition at 1 µM in assay [1] and in assay [2] (setting [4]) were 17% and 97%, respectively.

In the case of `C1=CC2C3CCC3C1C1CN(CCc3ccccn3)CC21` (centres unmarked) [Example 6, 2,3,3a,4,4a,5,6,6a,7,7a-Decahydro-2-[2-(2-pyridinyl)ethyl]-4,7-etheno-1H-cyclobut[f]isoindole, dihydrochloride, 1/4 hydrate], the values for the inhibition at 1 µM in assay [1] and in assay [2] (setting [4]) were 3% and 89%, respectively.

With `C1=CC2C1C1C=CC2C2CN(CCc3ccc4ccccc4n3)CC12` (centres unmarked) [Example 7, 2,3,3a,4,4a,6a,6,7,7a-Octahydro-2-[2-(2-quinolinyl)ethyl]4,7-etheno-1H-cyclobut[f]isoindole, dihydrochloride, 11/4 hydrate], the inhibition at 1 µM in assay [2] (setting [4]) is 46%.

Consider `Clc1cccc(N2CCN(CCCN3CC4CCC(CC4)C3)CC2)c1` [Example 8, 3-[3-[4-(3-Chlorophenyl)-1-piperazinyl]propyl]-3-azabicyclo[3.2.2]nonane, dihydrochloride], for which the values for the inhibition at 1 µM in assay [1] and in assay [2] were 11% and 82%, respectively.

Take `Clc1cccc(N2CCN(CCCN3CC4C5C=CC(C6CCC56)C4C3)CC2)c1` (centres unmarked) [Example 9, 2-[3-[4-(3-Chlorophenyl)-1-piperazinyl]propyl]-2,3,3a,4,4a,5,6,7,7a-decahydro-4,7-etheno-1H-cyclobut[f]isoindole, trihydrochloride, dihydrate]: the inhibition at 1 µM in assay [1] amounted to 40%.

Take `O=C(CCCN1CC2C3C=CC(C4CC34)C2C1)c1ccc(F)cc1` (centres unmarked) [Example 10, 1-(4-Fluorophenyl)-4-(3,3a,4,4a,5,5a,6,6a-octahydro-4,6-ethenocycloprop[f]isoindole-2-(1H)-yl)-1-butanone, hydrochloride, sesquihydrate]: the inhibition at 1 µM in assay [1] is 93%.

As for `c1ccc2nc(CCN3CC4CCC(CC4)C3)ccc2c1` [Example 12, 3-[2-(2-Quinolinyl)ethyl[-3-azabicyclo[3.2.2]nonane, dihydrochloride, dihydrate], in assay [2], the inhibition at 1 µM was found to be 30%.

For the molecule `COc1ccccc1N1CCN(CCCN2CC3CCC(CC3)C2)CC1` [Example 13, 3-[3-[4-(2-Methoxyphenyl)-1-piperazinyl]propyl]-3-azabicyclo[3.2.2]nonane, trihydrochloride, 3/4 hydrate], the inhibition at 1 µM in assay [1] turned out to be 55%.

Regarding `O=C1c2ccccc2S(=O)(=O)N1CCCCN1CCN(c2ncccn2)CC1` [TVX Q 7821, 2-[4-[4-(2-pyrimidinyl)-1-piperazinyl]butyl]-1,2-benzisothiazol-3-(2H)one1,1-dioxide hydrochloride], the antidepressant activity result in assay [3] is “possess antidepressant activity”. The “binding at the 5-HT1A site” value in the assay on 5-HT1A receptor is listed as “demonstrate binding at the 5-HT1A site”.

Consider `O=C1CC2(CCCC2)CC(=O)N1CCCCN1CCN(c2ncccn2)CC1` [buspirone, 8-[4-[4-(2-pyrimidinyl)-1-piperazinyl]butyl]-8-azaspiro[4.5]decane-7,9-dione], for which the “binding at the 5-HT1A site” value with 5-HT1A receptor is listed as “demonstrate binding at the 5-HT1A site”.

Regarding `CCCC(C)C1(CC)C(=O)NC(=O)NC1=O` (centres unmarked) [pentobarbital], the “binding at the 5-HT1A site” value in the assay with 5-HT1A receptor is recorded as “do not act via the 5-HT1A receptor”.
